ChEMBL document CHEMBL1129998, “Pharmacological options in the treatment of benign prostatic hyperplasia” (J Med Chem, 1997)

How the values were obtained:
[1] = target: T1, Steroid 5-alpha-reductase (Rattus norvegicus, UniProt P24008+P31214); assay: Apparent binding affinity on rat 5-alpha reductase isozyme; format: protein assay
T1 sequence (P24008 whole entry): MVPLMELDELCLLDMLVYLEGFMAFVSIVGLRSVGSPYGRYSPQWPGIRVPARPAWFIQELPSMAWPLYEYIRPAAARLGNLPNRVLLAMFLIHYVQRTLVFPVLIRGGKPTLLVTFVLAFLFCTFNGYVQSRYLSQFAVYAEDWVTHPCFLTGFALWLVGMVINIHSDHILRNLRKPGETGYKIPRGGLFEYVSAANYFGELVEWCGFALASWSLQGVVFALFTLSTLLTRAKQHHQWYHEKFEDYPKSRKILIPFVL
T1 sequence (P31214 whole entry): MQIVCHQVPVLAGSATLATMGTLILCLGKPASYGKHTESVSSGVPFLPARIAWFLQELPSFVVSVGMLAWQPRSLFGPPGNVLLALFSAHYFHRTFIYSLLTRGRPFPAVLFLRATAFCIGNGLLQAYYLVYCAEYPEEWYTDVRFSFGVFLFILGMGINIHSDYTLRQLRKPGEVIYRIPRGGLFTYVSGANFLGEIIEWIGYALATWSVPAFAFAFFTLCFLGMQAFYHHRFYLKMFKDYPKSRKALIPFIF

[2] = Apparent binding affinity on human 5-alpha reductase isozyme
[3] = target: T1, Steroid 5-alpha-reductase; assay: Inhibition of rat 5-alpha reductase isozyme.; format: protein assay
[4] = Inhibitory concentration on human 5-alpha reductase isozyme
[5] = target: T2, 3-oxo-5-alpha-steroid 4-dehydrogenase 2 (Homo sapiens, UniProt P31213); assay: Inhibitory concentration on human prostatic 5-alpha reductase 2 isozyme
T2 sequence (P31213 whole entry): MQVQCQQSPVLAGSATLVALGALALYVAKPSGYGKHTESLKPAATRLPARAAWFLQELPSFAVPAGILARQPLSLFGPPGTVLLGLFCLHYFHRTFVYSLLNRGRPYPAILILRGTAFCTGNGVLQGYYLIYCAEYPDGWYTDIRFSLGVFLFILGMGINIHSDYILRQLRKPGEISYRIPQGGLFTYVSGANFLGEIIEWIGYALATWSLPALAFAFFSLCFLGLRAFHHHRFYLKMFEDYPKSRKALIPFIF

[6] = target: T3, Adrenergic receptor alpha-1 (Homo sapiens, UniProt P35348+P25100+P35368); assay: pA2 for Alpha-1 adrenergic receptor from human prostate.; format: tissue-based, Prostate gland
T3 sequence (P35348 whole entry): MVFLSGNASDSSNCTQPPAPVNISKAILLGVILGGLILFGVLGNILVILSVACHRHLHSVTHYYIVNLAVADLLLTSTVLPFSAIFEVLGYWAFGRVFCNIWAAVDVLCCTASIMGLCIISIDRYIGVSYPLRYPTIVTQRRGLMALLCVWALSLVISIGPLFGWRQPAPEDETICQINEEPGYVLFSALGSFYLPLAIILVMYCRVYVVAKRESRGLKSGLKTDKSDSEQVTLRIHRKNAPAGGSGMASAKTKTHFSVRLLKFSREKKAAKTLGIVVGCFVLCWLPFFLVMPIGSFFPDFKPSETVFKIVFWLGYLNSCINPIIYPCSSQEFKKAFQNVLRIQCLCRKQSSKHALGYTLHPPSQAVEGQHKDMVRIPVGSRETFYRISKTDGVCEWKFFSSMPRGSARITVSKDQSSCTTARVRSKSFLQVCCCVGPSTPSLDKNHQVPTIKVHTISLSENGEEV
T3 sequence (P25100 whole entry): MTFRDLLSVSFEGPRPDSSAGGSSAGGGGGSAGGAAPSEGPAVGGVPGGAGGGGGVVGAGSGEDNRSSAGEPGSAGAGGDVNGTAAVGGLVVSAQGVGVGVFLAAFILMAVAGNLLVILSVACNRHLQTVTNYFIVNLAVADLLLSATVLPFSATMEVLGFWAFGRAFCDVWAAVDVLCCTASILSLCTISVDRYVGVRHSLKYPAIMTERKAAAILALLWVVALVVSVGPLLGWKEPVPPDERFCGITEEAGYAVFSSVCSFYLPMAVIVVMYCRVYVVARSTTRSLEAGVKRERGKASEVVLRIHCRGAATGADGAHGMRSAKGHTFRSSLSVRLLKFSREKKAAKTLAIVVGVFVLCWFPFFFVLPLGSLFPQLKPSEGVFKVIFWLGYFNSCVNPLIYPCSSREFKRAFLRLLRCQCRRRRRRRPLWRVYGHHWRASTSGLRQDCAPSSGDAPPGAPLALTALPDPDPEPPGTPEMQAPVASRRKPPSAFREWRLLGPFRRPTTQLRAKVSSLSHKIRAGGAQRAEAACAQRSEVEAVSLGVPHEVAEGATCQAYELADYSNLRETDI
T3 sequence (P35368 whole entry): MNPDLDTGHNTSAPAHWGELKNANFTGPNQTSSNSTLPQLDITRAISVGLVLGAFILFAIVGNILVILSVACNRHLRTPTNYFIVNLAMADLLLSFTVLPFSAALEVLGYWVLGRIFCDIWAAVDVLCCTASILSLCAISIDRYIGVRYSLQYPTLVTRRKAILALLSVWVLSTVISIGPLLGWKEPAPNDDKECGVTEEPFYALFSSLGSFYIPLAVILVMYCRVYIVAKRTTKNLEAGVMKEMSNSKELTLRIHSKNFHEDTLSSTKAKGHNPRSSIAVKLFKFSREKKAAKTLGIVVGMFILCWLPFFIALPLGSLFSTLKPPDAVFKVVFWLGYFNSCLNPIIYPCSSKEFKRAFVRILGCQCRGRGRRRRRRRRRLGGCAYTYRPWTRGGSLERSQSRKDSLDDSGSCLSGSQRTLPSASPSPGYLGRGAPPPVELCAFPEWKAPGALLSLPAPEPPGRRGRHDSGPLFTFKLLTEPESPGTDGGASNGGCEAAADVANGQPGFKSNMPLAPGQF

[7] = target: T4, Alpha-1A adrenergic receptor (Homo sapiens, UniProt P35348); assay: Binding affinity was tested on human Alpha-1A adrenergic receptor
T4 sequence (P35348 whole entry): T3 sequence (P35348 whole entry)

[8] = target: T5, Alpha-1D adrenergic receptor (Homo sapiens, UniProt P25100); assay: Binding affinity was tested on human Alpha-1D adrenergic receptor
T5 sequence (P25100 whole entry): T3 sequence (P25100 whole entry)

[9] = target: T6, Alpha-1B adrenergic receptor (Homo sapiens, UniProt P35368); assay: Binding affinity was tested on human Alpha-1B adrenergic receptor
T6 sequence (P35368 whole entry): T3 sequence (P35368 whole entry)

Canis familiaris [10] = assay: 50% reduction in agonist induced pressor response in anesthetized dog; format: functional; conditions: Canis lupus familiaris; read-out: ID50 (the source's name)
Canis familiaris [11] = assay: 50% reduction in intraurethral pressure (IUP) in response to hypogastric nerve stimulation or agonist (phenylephrine or norepinephrine) administration in anesthetized dog; format: functional; conditions: Canis lupus familiaris; read-out: ID50 (the source's name)
[12] = target: T7, Alpha-1B adrenergic receptor (Rattus norvegicus, UniProt P15823); assay: Binding affinity was tested on CEC-pretreated rat liver Alpha-1B adrenergic receptor
T7 sequence (P15823 whole entry): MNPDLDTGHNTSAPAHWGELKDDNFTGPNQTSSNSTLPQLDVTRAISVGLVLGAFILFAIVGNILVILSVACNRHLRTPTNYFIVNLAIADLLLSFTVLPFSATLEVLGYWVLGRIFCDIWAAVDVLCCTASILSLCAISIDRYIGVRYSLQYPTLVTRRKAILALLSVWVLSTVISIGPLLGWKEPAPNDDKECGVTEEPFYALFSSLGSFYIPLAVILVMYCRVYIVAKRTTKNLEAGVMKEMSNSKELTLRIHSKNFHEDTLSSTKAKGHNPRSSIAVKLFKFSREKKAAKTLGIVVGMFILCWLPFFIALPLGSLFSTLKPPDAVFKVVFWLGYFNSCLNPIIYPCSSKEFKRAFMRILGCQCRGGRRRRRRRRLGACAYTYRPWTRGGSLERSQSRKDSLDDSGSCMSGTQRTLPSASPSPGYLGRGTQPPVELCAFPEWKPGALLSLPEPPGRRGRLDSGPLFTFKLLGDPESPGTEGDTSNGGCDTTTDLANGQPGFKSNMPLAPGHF

[13] = target: T8, Alpha-1A adrenergic receptor (Rattus norvegicus, UniProt P43140); assay: Binding affinity was tested on CEC-pretreated rat hippocampus Alpha-1A adrenergic receptor; format: tissue-based
T8 sequence (P43140 whole entry): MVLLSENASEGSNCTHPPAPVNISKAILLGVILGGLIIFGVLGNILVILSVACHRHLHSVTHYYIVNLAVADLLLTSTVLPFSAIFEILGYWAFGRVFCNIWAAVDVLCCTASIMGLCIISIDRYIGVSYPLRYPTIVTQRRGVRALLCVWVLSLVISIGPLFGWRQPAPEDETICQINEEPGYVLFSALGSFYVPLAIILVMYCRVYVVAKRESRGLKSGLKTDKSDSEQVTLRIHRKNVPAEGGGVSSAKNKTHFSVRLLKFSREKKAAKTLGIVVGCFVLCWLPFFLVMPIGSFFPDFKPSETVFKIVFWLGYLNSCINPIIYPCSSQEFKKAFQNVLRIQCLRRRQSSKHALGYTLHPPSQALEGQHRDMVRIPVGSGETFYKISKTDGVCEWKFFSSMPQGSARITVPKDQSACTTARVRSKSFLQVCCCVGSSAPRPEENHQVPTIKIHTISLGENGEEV

`CC(C)N(C(=O)[C@H]1CCC2C3CC=C4C=C([PH](=O)O)CC[C@]4(C)C3CC[C@@]21C)C(C)C` (some centres not stated) showed a Ki [1] of 0.16 µM and a Ki [2] of 0.007 µM.

Compound `CC1=C2C=C(C(=O)O)CC[C@]2(C)C2CC[C@@]3(C)C(CC[C@@H]3C(=O)c3cccc4ccccc34)C2C1` (some centres not stated) has an IC50 [3] of 0.2 µM and an IC50 [4] of 0.17 µM.

In the case of `CC(C)NC(=O)N(C(=O)[C@H]1CCC2C3CCC4NC(=O)C=C[C@]4(C)C3CC[C@@]21C)C(C)C` (some centres not stated), the IC50 [5] is reported as 1.55 µM.

In the case of `O=C(CCCN1CCC(NC(=O)c2ccccc2)CC1)c1ccccc1`, the pA2 [6] is reported as 7.9, the Ki [7] is reported as 0.0158 µM and the Ki [8] is reported as 0.794 µM. For the same compound, the Ki [9] was 0.2 µM.

`COc1ccccc1N1CCN(CCCNc2c(C)c(=O)n(C)c(=O)n2C)CC1` gave a pA2 [6] of 8.2, a Ki [7] of 0.000631 µM and a Ki [8] of 0.01 µM. The Ki [9] was 0.0398 µM.

In the case of `CC1=C(C(=O)O)CC[C@@]2(C)C1=CCC1C2CC[C@@]2(C)C1CC[C@@H]2C(=O)N(C(C)C)C(C)C` (some centres not stated), the IC50 [3] is reported as 0.07 µM and the IC50 [4] is reported as 0.035 µM.

For `CC(C)N(C(=O)[C@H]1CC[C@H]2[C@@H]3CCC4C=C(C(=O)O)CC[C@]4(C)[C@H]3CC[C@]12C)C(C)C` (some centres not stated), the Ki [1] was 0.07 µM, the IC50 [3] was 0.07 µM and the IC50 [4] was 0.03 µM. It also gave a Ki [2] of 0.03 µM.

`CC(C)(Cc1c[nH]c2ccc(Cl)cc12)NCCOc1ccccc1OCC1CC1` gave a pA2 [6] of 7.3, a Ki [7] of 0.000631 µM and a Ki [8] of 0.0158 µM. For the same compound, the Ki [9] was 0.0158 µM.

For `CCOc1ccccc1OCCN[C@H](C)Cc1ccc(OC)c(S(N)(=O)=O)c1` (stereo in doubt; form 1) [TAMSULOSIN], the ED50 (Canis familiaris [10]) was 0.001 mg/kg, the ED50 (Canis familiaris [11]) was 0.002 mg/kg and the Ki [8] was 0.000158 µM. For the same compound, the Ki [9] was 0.00126 µM.

`CC(C)(C)NC(=O)[C@H]1CC[C@H]2[C@@H]3CC=C4C=C(C(=O)O)CC[C@]4(C)[C@H]3CC[C@]12C` [EPRISTERIDE] showed an IC50 [3] of 0.05 µM and an IC50 [4] of 0.018 µM.

Compound `O=C(NC1CCN(CCc2c[nH]c3ccccc23)CC1)c1ccccc1` [INDORAMIN] has a pA2 [6] of 8.7, a Ki [7] of 0.00398 µM and a Ki [8] of 0.158 µM. For the same compound, the Ki [9] was 0.0398 µM.

`COc1cc2nc(N3CCN(C(=O)c4ccco4)CC3)nc(N)c2cc1OC` [PRAZOSIN] showed an ED50 (Canis familiaris [10]) of 0.011 mg/kg and an ED50 (Canis familiaris [11]) of 0.012 mg/kg.

For `COc1cc2nc(N3CCN(C(=O)C4CCCO4)CC3)nc(N)c2cc1OC` (configuration not stated) [TERAZOSIN], the ED50 (Canis familiaris [10]) was 0.085 mg/kg, the ED50 (Canis familiaris [11]) was 0.101 mg/kg and the Ki [8] was 0.00398 µM.

With `COc1ccccc1N1CCN(CCCNC(=O)c2cccc3c(=O)c(C)c(-c4ccccc4)oc23)CC1` [UPIDOSIN] the ED50 (Canis familiaris [10]) was 0.109 mg/kg, the IC50 [12] was 0.024 µM and the ED50 (Canis familiaris [11]) was 0.004 mg/kg. For the same compound, the IC50 [13] was 0.002 µM.
